This test concerns L1210 leukemia ip in BDF1 mice, survival T/C. Briefly: NCI In Vivo Anticancer Drug Screen. Data for tumor model L1210 Leukemia (intraperitoneal) in B6D2F1 (BDF1) mice. The note with it: endpoint: mean survival time, higher = longer survival. The method in brief:
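Survival endpoint. Drug-treated group vs vehicle group, expressed as T divided by C. Tumor passaged by transplantation.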

[1] abbreviates: dose: 100.0 mg/kg/injection, schedule: Q01DX001 (ip), vehicle: carboxymethylcellulose (CMC).
[2] abbreviates: dose: 100.0 mg/kg/injection, schedule: Q01DX009 (ip), vehicle: saline.
[3] abbreviates: dose: 200.0 mg/kg/injection, schedule: Q01DX001 (ip), vehicle: carboxymethylcellulose (CMC).
[4] abbreviates: dose: 300.0 mg/kg/injection, schedule: Q01DX001 (ip), vehicle: carboxymethylcellulose (CMC).
Where [5] appears, read: dose: 100.0 mg/kg/injection, schedule: Q01DX009 (ip), vehicle: Klucel (hydroxypropylcellulose) (HPC).
Where [6] appears, read: dose: 200.0 mg/kg/injection, schedule: Q01DX009 (ip), vehicle: Klucel (hydroxypropylcellulose) (HPC).
[7] abbreviates: dose: 400.0 mg/kg/injection, schedule: Q01DX009 (ip), vehicle: Klucel (hydroxypropylcellulose) (HPC).
Setting [8] is: dose: 50.0 mg/kg/injection, schedule: Q01DX009 (ip), vehicle: saline.
Setting [9] is: dose: 200.0 mg/kg/injection, schedule: Q01DX009 (ip), vehicle: saline.
[10] abbreviates: dose: 400.0 mg/kg/injection, schedule: Q01DX009 (ip), vehicle: saline.
Where [11] appears, read: dose: 150.0 mg/kg/injection, schedule: Q01DX009 (ip), vehicle: Klucel (hydroxypropylcellulose) (HPC).
[12] abbreviates: dose: 100.0 mg/kg/injection, schedule: Q04DX003 (ip), vehicle: Klucel (hydroxypropylcellulose) (HPC).
The mark [13] stands for this setting: dose: 200.0 mg/kg/injection, schedule: Q04DX003 (ip), vehicle: Klucel (hydroxypropylcellulose) (HPC).
Setting [14] is: dose: 400.0 mg/kg/injection, schedule: Q01DX001 (ip), vehicle: carboxymethylcellulose (CMC).
[15] abbreviates: dose: 100.0 mg/kg/injection, schedule: Q01DX001 (ip), vehicle: Klucel (hydroxypropylcellulose) (HPC).
Where [16] appears, read: dose: 200.0 mg/kg/injection, schedule: Q01DX001 (ip), vehicle: Klucel (hydroxypropylcellulose) (HPC).
The mark [17] stands for this setting: dose: 400.0 mg/kg/injection, schedule: Q01DX001 (ip), vehicle: Klucel (hydroxypropylcellulose) (HPC).
[18] abbreviates: dose: 100.0 mg/kg/injection, schedule: Q04DX003 (ip), vehicle: saline.

“And” between values parts separate entries of the source, which are not always exact repeats. Equal entries are not always repeated. Toxic doses and inconclusive results are not listed.

In the case of `COc1cc(NC(=O)CN(CCCl)CCCl)cc(OC)c1OC`, the T/C was 116 % of control (dose: 13.3 mg/kg/injection, schedule: Q01DX009 (ip), vehicle: carboxymethylcellulose (CMC)); 100 % of control (dose: 20.0 mg/kg/injection, schedule: Q01DX009 (ip), vehicle: carboxymethylcellulose (CMC)); 122 % of control (dose: 25.0 mg/kg/injection, schedule: Q01DX001 (ip), vehicle: carboxymethylcellulose (CMC)); 124 % of control (dose: 30.0 mg/kg/injection, schedule: Q01DX009 (ip), vehicle: carboxymethylcellulose (CMC)); 123 % of control (dose: 44.4 mg/kg/injection, schedule: Q01DX009 (ip), vehicle: carboxymethylcellulose (CMC)); 107 % of control (dose: 45.0 mg/kg/injection, schedule: Q01DX009 (ip), vehicle: carboxymethylcellulose (CMC)). Further, the T/C is 116 % of control (dose: 50.0 mg/kg/injection, schedule: Q01DX001 (ip), vehicle: carboxymethylcellulose (CMC)); 110 % of control (dose: 66.6 mg/kg/injection, schedule: Q01DX009 (ip), vehicle: carboxymethylcellulose (CMC)); 112 % of control (dose: 89.0 mg/kg/injection, schedule: Q01DX001 (ip), vehicle: carboxymethylcellulose (CMC)); 118 % of control (dose: 89.0 mg/kg/injection, schedule: Q01DX001 (ip), vehicle: saline); 119 % of control under setting [1]; 86 % of control (dose: 100.0 mg/kg/injection, schedule: Q01DX009 (ip), vehicle: carboxymethylcellulose (CMC)). Moreover, the T/C by setting is: under setting [2], 170 % of control; (dose: 133.0 mg/kg/injection, schedule: Q01DX001 (ip), vehicle: carboxymethylcellulose (CMC)) 102 % of control and 115 % of control; (dose: 150.0 mg/kg/injection, schedule: Q01DX009 (ip), vehicle: carboxymethylcellulose (CMC)) 88 % of control; (dose: 150.0 mg/kg/injection, schedule: Q01DX009 (ip), vehicle: saline) 90 % of control; under setting [3], 114 % of control and 120 % of control; under setting [4], 107 % of control.

Turning to `CCCCCCNC(=O)Nc1ccccc1Cl`, the T/C by setting is: under setting [5], 97 % of control; under setting [6], 100 % of control; under setting [7], 105 % of control.

For the molecule `COC(=O)c1ccccc1NC(=O)Nc1cccc(Cl)c1C`, the T/C is 86 % of control under setting [5] and 95 % of control under setting [6].

As to `Cc1cc(NC(=O)NCc2ccc(N3C(N)=NC(N)=NC3(C)C)cc2)ccc1S(=O)(=O)F`, the T/C by setting is: under setting [8], 102 % of control; under setting [2], 119 % of control; under setting [9], 107 % of control; under setting [10], 114 % of control.

As for `Cc1ccc(C(=O)Oc2ccc(Cl)c(C)c2Cl)cc1`, the T/C is, setting by setting: (dose: 75.0 mg/kg/injection, schedule: Q01DX001 (ip), vehicle: carboxymethylcellulose (CMC)) 91 % of control; (dose: 150.0 mg/kg/injection, schedule: Q01DX001 (ip), vehicle: carboxymethylcellulose (CMC)) 92 % of control; under setting [4], 92 % of control.

Regarding `CCc1ccccc1NC(=O)N(Cc1ccccc1)Cc1ccccc1`, the T/C runs as follows: under setting [5], 101 % of control; under setting [6], 97 % of control; under setting [7], 96 % of control.

In the case of `Nc1cc(Cl)c(Cl)cc1Cl`, the T/C runs as follows: (dose: 100.0 mg/kg/injection, schedule: Q04DX003 (ip), vehicle: saline with Tween-80) 97 % of control; (dose: 200.0 mg/kg/injection, schedule: Q04DX003 (ip), vehicle: saline with Tween-80) 101 % of control; (dose: 400.0 mg/kg/injection, schedule: Q04DX003 (ip), vehicle: saline with Tween-80) 100 % of control.

In the case of `O=C(COc1ccc(Cl)c(Cl)c1)Nc1cccnc1`, the T/C reads like this: (dose: 75.0 mg/kg/injection, schedule: Q01DX009 (ip), vehicle: Klucel (hydroxypropylcellulose) (HPC)) 104 % of control; under setting [11], 96 % of control; (dose: 300.0 mg/kg/injection, schedule: Q01DX009 (ip), vehicle: Klucel (hydroxypropylcellulose) (HPC)) 101 % of control.

`CC(=O)OCC1OC(OC(C)=O)C(NC(=O)N(C)c2ccccc2)C(OC(C)=O)C1OC(C)=O` (stereo not drawn): the T/C by setting is: under setting [12], 105 % of control; under setting [13], 105 % of control; (dose: 400.0 mg/kg/injection, schedule: Q04DX003 (ip), vehicle: Klucel (hydroxypropylcellulose) (HPC)) 105 % of control.

As for `CCCCNC(=O)Nc1cccc2ccccc12`, the T/C is, setting by setting: under setting [5], 96 % of control; under setting [6], 96 % of control; under setting [7], 97 % of control.

Turning to `CC(NC(=O)OC(C)(C)C)C(=O)O` (stereo not drawn), the T/C under setting [1] was 104 % of control, the T/C under setting [3] is 104 % of control and the T/C under setting [14] is 104 % of control.

Regarding `Nc1nnnn1N(Cc1ccccc1)Cc1ccccc1`, the T/C by setting is: under setting [12], 96 % of control; under setting [13], 117 % of control.

In the case of `O=CC1OC(c2ccccc2)OC2COC(c3ccccc3)OC12` (stereo not drawn), the T/C reads like this: under setting [15], 103 % of control; under setting [16], 97 % of control; under setting [17], 93 % of control.

For the molecule `CN=C(NN)Nc1ccccc1`, the T/C is, setting by setting: (dose: 87.5 mg/kg/injection, schedule: Q04DX003 (ip), vehicle: saline) 96 % of control; (dose: 175.0 mg/kg/injection, schedule: Q04DX003 (ip), vehicle: saline) 104 % of control; (dose: 350.0 mg/kg/injection, schedule: Q04DX003 (ip), vehicle: saline) 93 % of control.

Take `O=C1NC(c2ccccc2Cl)Nc2ccccc21` (stereo not drawn): the T/C is, setting by setting: (dose: 50.0 mg/kg/injection, schedule: Q01DX009 (ip), vehicle: Klucel (hydroxypropylcellulose) (HPC)) 103 % of control; under setting [5], 101 % of control; under setting [11], 97 % of control.

With `Cc1cc(=S)n(C)c2ccccc12`, the T/C under setting [1] was 89 % of control, the T/C under setting [3] was 89 % of control and the T/C under setting [14] is 96 % of control.

With `[N-]=[N+]=Nc1ccc(C(=O)O)cc1`, the T/C was 100 % of control under setting [15], 100 % of control under setting [16] and 103 % of control under setting [17].

As to `Cn1c(O)c(C=N)c(=O)n(C)c1=O`, the T/C (dose: 25.0 mg/kg/injection, schedule: Q01DX009 (ip), vehicle: saline) was 101 % of control; the T/C under setting [8] is 100 % of control; the T/C under setting [2] is 87 % of control; the T/C under setting [18] was 98 % of control.

`CCCCCCCCCCCCCSCCSCCCCCCCCCCCCC`: the T/C was 96 % of control under setting [15], 86 % of control under setting [16] and 96 % of control under setting [17].

`COc1ccc([N+](=O)[O-])c(C=O)c1`: the T/C by setting is: under setting [2], 101 % of control; under setting [18], 97 % of control; under setting [9], 98 % of control; (dose: 200.0 mg/kg/injection, schedule: Q04DX003 (ip), vehicle: saline) 100 % of control; under setting [10], 101 % of control; (dose: 400.0 mg/kg/injection, schedule: Q04DX003 (ip), vehicle: saline) 103 % of control.

Values taken from PubChem BioAssay AID248 (DTP/NCI, 2004).
